Results reported in patent US6846804B2 (priority 2000, dated 2005).

Assays:
spores of Bacillus = conditions: cited from earlier work
B. cereus T spores = type: cell-based, Bacillus cereus T

Sublancin
inhibition of outgrowth of spores (spores of Bacillus): highly active | halo (inhibition of spore germination/outgrowth) (B. cereus T spores): clear halo
